The source made the active and inactive calls. No rule for the calls is given here.
target: T-cell receptor (TCR)-CD3 interaction, human (TCR alpha chain TRAV4); assay: potency of TCR-CD3 interaction inhibitors, dose response, biochemical, fluorescence, TAMRA-labeled TCR probe (AID 686957); conditions: TCR-CD3 binding

Compound | IC50
O=C(NC(=S)NNC(=O)c1cccs1)c1ccccc1 | > 94.1 µM (inactive)
COc1ccc(CC(=O)N/N=C/c2cc([N+](=O)[O-])cc(Br)c2O)cc1 | > 94.1 µM (inactive)
O=C1/C(=C/c2ccco2)SC(=S)N1c1cccnc1 | > 94.1 µM (inactive)
Cc1ccc2nc(-c3ccc(O)c(O)c3)cn2c1 | > 94.1 µM (inactive)
NS(=O)(=O)c1ccc(NC(=O)c2cccc(N3C(=O)c4ccccc4C3=O)c2)cc1 | > 94.1 µM (inactive)
CC1(C)CC2CC(C)(CN2S(=O)(=O)c2ccc(C(=O)Nc3cccc(S(=O)(=O)N4CCOCC4)c3)cc2)C1 (centres undefined) | inactive
O=C(CCN1CCN(c2ccccc2)CC1)N/N=C/c1ccc(O)c(O)c1O | > 94.1 µM (inactive)
O=C(NNC(=O)c1ccc2ccccc2c1O)c1ccccc1Cl | > 94.1 µM (inactive)
O=C(N/N=C/c1cc([N+](=O)[O-])ccc1O)/C(=C\c1cccs1)NC(=O)c1ccccc1 | > 94.1 µM (inactive)
COc1cc(Br)cc2cc(C(=O)N3CCN(C(=O)c4ccco4)CC3)c(=O)oc12 | > 94.1 µM (inactive)
COc1ccccc1NC(=O)NNC(=O)c1cc2ccccc2cc1O | > 94.1 µM (inactive)
COc1cc(/C=N/NC(=O)c2cc(O)cc(O)c2)ccc1OC(=O)c1ccccc1 | > 94.1 µM (inactive)
O=C(Cc1ccccc1)NNC(=S)NC(=O)c1cccnc1 | > 94.1 µM (inactive)
O=C1Nc2ccccc2/C1=N\N=C\c1ccc(O)c(O)c1 | > 94.1 µM (inactive)
COC(=O)Nc1ccc(S(=O)(=O)NNC(=O)c2c(O)c3ccccc3[nH]c2=O)cc1 | > 94.1 µM (inactive)
Cc1ccccc1C(=O)Nc1cccc(C(=O)N/N=C/c2cc(Cl)cc([N+](=O)[O-])c2O)c1 | > 94.1 µM (inactive)
O=C(CCl)NNC(=O)c1c(O)c2ccccc2[nH]c1=O | > 94 µM (inactive)
Nc1nnc(CC(=O)N/N=C\c2cc([N+](=O)[O-])ccc2O)s1 | > 94.1 µM (inactive)
O=C(CCCN1C(=O)/C(=C/c2cccs2)SC1=S)NNC(=O)c1ccccc1O | > 94.1 µM (inactive)
Cc1cc(C)c(C)c(S(=O)(=O)N2CCC(C(=O)NNC(=O)c3ccccc3O)CC2)c1C | > 94.1 µM (inactive)
Cc1nc2ccccc2n1CC(=O)c1ccc(O)c(O)c1 | > 94 µM (inactive)
O=C(N/N=C/c1cc([N+](=O)[O-])ccc1O)c1cccc(N2CCCC2=O)c1 | > 94.1 µM (inactive)
O=c1c2c(-c3ccc(Cl)cc3)csc2ncn1/N=C/c1cccc([N+](=O)[O-])c1O | > 94.1 µM (inactive)
CC1CCCC(C)N1/N=C/c1ccc(O)c(O)c1 (centres undefined) | > 94.1 µM (inactive)

Compound | IC50
C/C(=N\NC(=O)c1ccc(-c2ccccc2)cc1)C1C(=O)c2ccccc2C1=O | > 94.1 µM (inactive)
COc1ccc(C(=O)C=CNNC(=O)c2ccc(Cl)cc2)cc1 | > 94.1 µM (inactive)
CCn1c(SCC(=O)c2ccc(O)c(O)c2)nnc1-c1ccccc1OC | > 94.1 µM (inactive)
O=C(N/N=C/c1cc(Br)cc(Cl)c1O)c1ccc2c(c1)OCO2 | > 94.1 µM (inactive)
O=C(NNC(=S)NC(=O)c1cccc([N+](=O)[O-])c1)c1ccc(O)cc1 | > 94 µM (inactive)
COc1ccccc1N(C)S(=O)(=O)c1ccc(C(=O)NNC(=O)c2ccccc2O)cc1 | > 94.1 µM (inactive)
O=C(N/N=C/c1cc(Cl)cc([N+](=O)[O-])c1O)c1cccc(S(=O)(=O)N2CCOCC2)c1 | > 94.1 µM (inactive)
Cn1c(SCC(=O)NNC(=O)c2ccccc2O)nnc1-c1ccccc1 | > 94.2 µM (inactive)
CNC(=S)NNC(=O)c1cccn(Cc2ccc(Cl)c(Cl)c2)c1=O | > 94 µM (inactive)
Cc1ccc(C(=O)NNC(=O)c2cc3ccccc3cc2O)cc1 | > 94.1 µM (inactive)
O=[N+]([O-])c1ccc(O)c(/C=N/NC(=S)Nc2ccc(Cl)cc2Cl)c1 | > 94.1 µM (inactive)
COC(=O)Cn1c(=NC(=O)c2cc(-c3cccs3)nc3ccccc23)sc2cc(S(N)(=O)=O)ccc21 | > 10.5 µM (inactive)
Nc1ncnc2oc(-c3ccco3)c(-c3ccco3)c12 | inactive
O=c1oc2ccccc2c2oc3cc(O)c(O)cc3c12 | > 94.2 µM (inactive)
O=C(NNC(=O)c1ccccc1O)c1ccccc1O | > 93.9 µM (inactive)
O=C(NNC(=S)NC(=O)c1cccs1)c1ccc(O)cc1 | > 94 µM (inactive)
NC(=O)CCC1NC(=S)N(Cc2ccccc2)C1=O (centres undefined) | > 94.1 µM (inactive)
Cc1ccccc1NC(=O)NNC(=O)c1ccc2ccccc2c1O | > 94.2 µM (inactive)
COc1cc2ccccc2cc1C(=O)NNC(=O)c1ccccc1O | > 94.2 µM (inactive)
O=C(N/N=C/c1ccc(O)c(O)c1)N/N=C/c1ccc(O)c(O)c1 | 1.03 µM
COc1ccc(/C=C2\SC(=O)N(CC(=O)NNC(=O)c3ccccc3O)C2=O)cc1 | > 94.1 µM (inactive)
Cc1cccc(C(=O)NCC(=O)NNC(=O)c2ccccc2O)c1 | > 94 µM (inactive)
Nc1c(C(=O)NCC2CCCO2)sc2nc3c(c(-c4ccco4)c12)CC/C3=C\c1ccco1 (centres undefined) | inactive
CCN(CC(=O)Nc1c(F)cccc1F)C(=O)/C=C/c1ccc2ccccc2n1 | > 94.1 µM (inactive)

Compound | IC50
c1coc(-c2ccc3nncn3c2)c1 | inactive
Oc1ccc(/C=N/N=C/c2ccc(O)c(O)c2)cc1O | 2.24 µM
O=C(O)c1ccccc1/C=N/NC(=O)c1cc(-c2ccco2)nc2ccccc12 | > 94.1 µM (inactive)
COc1ccc(NC(=O)CSc2sc3c(O)cc(=O)[nH]c3c2C#N)c(OC)c1 | > 94.1 µM (inactive)
COc1ccc(/C=N\NC(=O)c2cc(O)c(O)c(O)c2)cc1CN1CCN(c2ccc(F)cc2)CC1 | > 94.2 µM (inactive)
CCOc1ccc(NC(=O)NNC(=O)c2ccc3ccccc3c2O)cc1 | > 94.1 µM (inactive)
CC(=O)c1cccc(NC(=O)C(OC(=O)c2cccc(S(=O)(=O)N(C)c3ccccc3)c2)c2ccccc2)c1 (centres undefined) | inactive
Cc1ccc(C(=O)NNC(=O)c2ccc3ccccc3c2O)cc1 | > 94 µM (inactive)
Cc1ccn2cc(-c3ccc(O)c(O)c3)nc2c1 | > 94.1 µM (inactive)
CCOc1ccc(C(=O)CCC(=O)NNC(=O)c2ccccc2O)cc1 | > 94.1 µM (inactive)
Cc1onc(-c2ccccc2)c1C(=O)NN=Cc1cc(Cl)cc(Cl)c1O | > 94 µM (inactive)
CCC(=O)Nc1ccc2nc3c(=O)[nH]c(=S)[nH]c3nc2c1 | > 94.1 µM (inactive)
COc1ccc2nc(C)cc(SCC(=O)N/N=C/c3ccc(O)c(O)c3)c2c1 | > 94.1 µM (inactive)
CNC(=S)NNC(=O)c1oc2nc(-c3ccccc3)cc(-c3ccco3)c2c1N | > 94.1 µM (inactive)
COCCn1c(=NC(=O)c2cc(-c3cccs3)nc3ccccc23)sc2cc(S(N)(=O)=O)ccc21 | > 94.1 µM (inactive)
Cc1cc(C(=O)N/N=C/c2cc(Cl)cc([N+](=O)[O-])c2O)n[nH]1 | > 94.1 µM (inactive)
O=C(NNC(=O)C1CCN(S(=O)(=O)c2ccccc2)CC1)c1ccccc1O | > 94.1 µM (inactive)
Nc1ccc([N+](=O)[O-])cc1C(=O)NNC(=O)c1ccco1 | > 94.1 µM (inactive)
Cc1nc(S/C(=C/c2ccc(OCc3ccc(C(=O)O)cc3)cc2)C(=O)O)n[nH]1 | > 94.1 µM (inactive)
Cc1cc(C(=O)N/N=C/c2cc(Br)cc([N+](=O)[O-])c2O)c2ccccc2n1 | > 94.1 µM (inactive)
O=C1COc2ccc(C(=O)COC(=O)/C=C/c3ccc(Br)o3)cc2N1 | > 94.1 µM (inactive)
O=C(CCc1ccc(S(=O)(=O)N2CCOCC2)cc1)N/N=C/c1ccc(O)c(O)c1O | > 94.1 µM (inactive)
CC(C)(C)c1ccc(C(=O)NCC(=O)NNC(=O)c2ccccc2O)cc1 | > 94.1 µM (inactive)
CCn1c(C)nc2cc(C(=O)NNC(=S)NC(=O)c3ccccc3)ccc21 | > 94.1 µM (inactive)

Compound | IC50
O=C(CCNC(=O)c1ccc(Br)cc1)NNC(=O)c1ccccc1O | > 94.1 µM (inactive)
O=C(N/N=C/c1cccc([N+](=O)[O-])c1O)c1cccs1 | > 94.1 µM (inactive)
COc1ccccc1C(=O)NNC(=O)c1ccc(NC(=O)CC(C)C)cc1 | > 94.1 µM (inactive)
O=c1cc(-c2ccc(O)cc2)oc2c(O)c(O)c(O)c(O)c12 | > 94.2 µM (inactive)
COC(=O)CC1(C(=O)OC)Nc2cc(Cl)c(Cl)cc2S(=O)(=O)N1O (centres undefined) | > 94.2 µM (inactive)
O=C(CP(=O)(c1ccccc1)c1ccccc1)N/N=C/c1cc(Br)cc(Br)c1O | > 94.2 µM (inactive)
CC(=O)NC(CC(=O)NNC(=O)c1cc2ccccc2cc1O)c1ccccc1 (centres undefined) | > 94.1 µM (inactive)
CCOC(=O)c1c(C)[nH]c(C(=O)N/N=C/c2cc([N+](=O)[O-])ccc2O)c1C | > 94.1 µM (inactive)
Cc1cc(=O)oc2cc(OCC(=O)N/N=C/c3cc([N+](=O)[O-])ccc3O)ccc12 | > 94.1 µM (inactive)
O=[N+]([O-])c1cc(Cl)cc(/C=N/NC(=S)Nc2ccc(S(=O)(=O)N3CCOCC3)cc2)c1O | > 94.1 µM (inactive)
CC(=O)c1ccc(NC(=O)CN2C(=O)/C(=C/C(C)=C/c3ccccc3)SC2=S)cc1 | > 94.1 µM (inactive)
Nc1ccc2nc3c(=O)[nH]c(=S)[nH]c3nc2c1 | 3.74 µM
COc1ccc(C(=O)NNC(=S)NC(=O)c2ccc(Br)o2)cc1OC | > 94.1 µM (inactive)
C=CCn1c(O)c(N=NC(=O)CNC(=O)/C=C/c2ccco2)c2ccccc21 | > 94.1 µM (inactive)
CCOC(=O)C1=C(CC)Nc2ccccc2N=C1NC(=O)Nc1ccc(Cl)c(Cl)c1 | inactive
O=C1C=C(O)c2c(O)cc(O)c(O)c2C1=O | > 94.1 µM (inactive)
Cc1nc(S/C(=C\c2ccc(-c3ccc(C(=O)O)c(Cl)c3)o2)C(=O)O)n[nH]1 | > 94.1 µM (inactive)
CNC(=S)NNC(=O)c1cccn(Cc2ccccc2)c1=O | > 94.2 µM (inactive)
O=C(CSc1nc2ccccc2s1)N/N=C/c1cc([N+](=O)[O-])ccc1O | > 94.1 µM (inactive)
O=C(NC(=S)NNC(=O)c1ccccc1O)c1cccnc1 | > 94.1 µM (inactive)
O=c1c2ccccc2c(C=Nc2ccccc2O)c(O)n1-c1nccs1 | > 94.1 µM (inactive)
COCCNC(=O)Nc1ccc2nc(-c3ccco3)c(-c3ccco3)nc2c1 | > 94.1 µM (inactive)

Source: PubChem BioAssay AID686957 (The Scripps Research Institute Molecular Screening Center, 2013)
